One assay deals with Collagen Type 1. The assay is described as follows: High-throughput screening assay for Collagen Type 1 production (Procollagen Type 1C-Peptide EIA of hDF supernatants). In kind it is cell-based, human. The settings on record: 3 days of treatment.
Assay [1] concerns human dermal fibroblast (hDF). As to the kind of experiment: High-throughput proliferation screening assay of human dermal fibroblasts. In kind it is cell-based. The settings on record: at concentration of 200 nM; 3 days of treatment; DAPI imaging. As to the method: For the proliferation assay, human dermal fibroblast (hDF) were plated into 96 well Black/Clear bottom tissue-culture treated plates (Corning) at 1,000 cells/well in DMEM (Gibco) 15% FBS (HyClone). […] After 3 days of treatment, cells were fixed and stained with DAPI and analyzed using Roche Cellavista High-Content Imaging System (see FIG. 1).

Another assay relates to FGF7. The assay is described as follows: High-throughput screening assay for FGF7 production (ELISA of hDF supernatants). In kind it is cell-based, human. The settings on record: at concentration of 25 μM; 3 days of treatment. As to the method:
For FGF7 production assay hDFs were plated into 96 well Clear tissue-culture treated plates (Falcon) at 19,000 cells/well in DMEM (Gibco) 1× N2/B27 Supplement (Invitrogen). […] After 3 days of treatment, supernatants were collected and analyzed for FGF7 content using FGF7 Human ELISA Kit (Abcam) and with BioTek Synergy 2 Multi-Detection Microplate Reader (see FIG. 1).
On the technique in general: ELISA stands for enzyme-linked immunosorbent assay.

The next assay concerns TGFβ1. The assay is described as follows: High-throughput screening assay for TGFβ1 production (ELISA of hDF supernatants). In kind it is cell-based, human. As to conditions: 3 days of treatment. As for the experimental part:
For TGFβ1 production assay hDFs were plated into 96 well Clear tissue-culture treated plates (Falcon) at 19,000 cells/well in DMEM (Gibco) 1× N2/B27 Supplement (Invitrogen). […] After 3 days of treatment, supernatants were collected and analyzed for TGFβ1 content using TGFβ1 Human ELISA Kit (Abcam) and with BioTek Synergy 2 Multi-Detection Microplate Reader (see FIG. 1).

Another assay concerns EGF. The assay is described as follows: High-throughput screening assay for EGF production (ELISA of hDF supernatants). In kind it is cell-based, human. The settings on record: 3 days of treatment. As for the experimental part: For EGF production assay hDFs were plated into 96 well Clear tissue-culture treated plates (Falcon) at 19,000 cells/well in DMEM (Gibco) 1× N2/B27 Supplement (Invitrogen). […] After 3 days of treatment, supernatants were collected and analyzed for EGF content using EGF Human ELISA Kit (Abcam) and with BioTek Synergy 2 Multi-Detection Microplate Reader (see FIG. 1).

[2] abbreviates: at concentrations of 25 and 12.5 μM.

Counter-ions that a name gives are not always drawn.

`CN1CCC[C@@H]1CCO[C@](C)(c1ccccc1)c1ccc(Cl)cc1` [Clemastine fumarate]: in the assay on Collagen Type 1 (at concentration of 780 nM), the “production level of Collagen Type 1 in hDFs” value is “induced the highest production level”.

Consider `CN(C)C(=O)C(=O)c1cn(C)c2cc(Cl)c(C(=O)N3CCC(Cc4ccc(F)cc4)CC3)cc12` [SX 011], for which, in assay [1], the “proliferation level in hDFs” value is recorded as “induced the highest proliferation level”.

In the case of `CCCCC[C@H](O)/C=C/[C@H]1[C@H](O)CC(=O)[C@@H]1C/C=C\CCCC(=O)O` [Prostaglandin E2], the “production level of FGF7 in hDFs” value with FGF7 is given as “induced the highest production level”.

For the compound `CN1CC(=O)NC1=NC(=O)Nc1cccc(Cl)c1` [Fenobam], the “proliferation level in hDFs” value in assay [1] is on record as “induced the highest proliferation level”.

For the compound Proxyfan Oxalate, in the assay on TGFβ1 (at concentration of 24 nM), the “production level of TGFβ1 in hDFs” value is on record as “induced the highest production level”.

For `Cc1cc(C)c(S(=O)(=O)Nc2cccc(C(F)(F)F)c2)c(C)c1` [m-3M3FBS], the “production level of TGFβ1 in hDFs” value with TGFβ1 (at concentration of 24 nM) is given as “induced the highest production level”.

For the compound `O=C(O)c1ccc(-c2ccc3cc(O)c(C45CC6CC(CC(C6)C4)C5)cc3c2)cc1` [CD 1530], the “production level of EGF in hDFs” value with EGF (setting [2]) is “induced the highest production level”.

Turning to `OCCN(CCO)c1nc(N2CCCCC2)c2nc(N(CCO)CCO)nc(N3CCCCC3)c2n1` [Dipyridamole], in the assay on Collagen Type 1 (at concentration of 390 nM), the “production level of Collagen Type 1 in hDFs” value is on record as “induced the highest production level”.

In the case of `Cl.Cl.Nc1ncnc2nc(-c3ccc(N4CCOCC4)nc3)cc(-c3cccc(Br)c3)c12` [ABT702 dihydrochloride], in assay [1], the “proliferation level in hDFs” value is on record as “induced the highest proliferation level”.

In the case of `CN1Cc2ccccc2[C@@H]2c3cccc4[nH]cc(c34)C[C@H]21` [CY 208-243], in the assay with EGF (at concentrations of 12.5 μM), the “production level of EGF in hDFs” value was “induced the highest production level”.

Take `CS(=O)(=O)O.N=C(N)SCCc1ccc(OCc2ccc([N+](=O)[O-])cc2)cc1` [KB-R7943 mesylate]: the “production level of TGFβ1 in hDFs” value in the assay on TGFβ1 (at concentration of 1.6 μM) was “induced the highest production level”.

Turning to `O=C(O)c1ccc2cc(-c3ccc(O)c(C45CC6CC(CC(C6)C4)C5)c3)ccc2c1` [CD 437], the “production level of EGF in hDFs” value in the assay with EGF (setting [2]) is reported as “induced the highest production level”.

For the compound PSB 06126, the “production level of EGF in hDFs” value in the assay on EGF (at concentration of 12.5 (unit not given)) was “induced the highest production level”.

`O=C1CCc2cc(OCCCCc3nnnn3C3CCCCC3)ccc2N1` [Cilostazol]: the “production level of Collagen Type 1 in hDFs” value in the assay on Collagen Type 1 (at concentration of 6.25 μM) is recorded as “induced the highest production level”.

Values taken from patent US10335422B2, “Small molecules that promote skin regeneration” (International Stem Cell Corporation, priority 2013, dated 2019).
